The values below come from publication PMC4879574, “Identification of Leishmania donovani Topoisomerase 1 inhibitors via intuitive scaffold hopping and bioisosteric modification of known Top 1 inhibitors” (Scientific Reports, 2016).

One data set relates to COS7 cells. The data set is described as follows: Cytotoxicity on mammalian COS7 cell lines. The format is cell-based.
Data set [1] in a line: Cytotoxicity on mammalian COS7 cell lines. It is filed as cell-based. The note with it: African green monkey, COS7 cells.
Another data set deals with T1, Human Top1 (HTop1) (Homo sapiens, UniProt P11387).
T1 construct: made in house; host or cells: Sf-9 insect cells infected with recombinant baculovirus (gift from Prof. J. J. Champoux)
T1 sequence (P11387 1-765): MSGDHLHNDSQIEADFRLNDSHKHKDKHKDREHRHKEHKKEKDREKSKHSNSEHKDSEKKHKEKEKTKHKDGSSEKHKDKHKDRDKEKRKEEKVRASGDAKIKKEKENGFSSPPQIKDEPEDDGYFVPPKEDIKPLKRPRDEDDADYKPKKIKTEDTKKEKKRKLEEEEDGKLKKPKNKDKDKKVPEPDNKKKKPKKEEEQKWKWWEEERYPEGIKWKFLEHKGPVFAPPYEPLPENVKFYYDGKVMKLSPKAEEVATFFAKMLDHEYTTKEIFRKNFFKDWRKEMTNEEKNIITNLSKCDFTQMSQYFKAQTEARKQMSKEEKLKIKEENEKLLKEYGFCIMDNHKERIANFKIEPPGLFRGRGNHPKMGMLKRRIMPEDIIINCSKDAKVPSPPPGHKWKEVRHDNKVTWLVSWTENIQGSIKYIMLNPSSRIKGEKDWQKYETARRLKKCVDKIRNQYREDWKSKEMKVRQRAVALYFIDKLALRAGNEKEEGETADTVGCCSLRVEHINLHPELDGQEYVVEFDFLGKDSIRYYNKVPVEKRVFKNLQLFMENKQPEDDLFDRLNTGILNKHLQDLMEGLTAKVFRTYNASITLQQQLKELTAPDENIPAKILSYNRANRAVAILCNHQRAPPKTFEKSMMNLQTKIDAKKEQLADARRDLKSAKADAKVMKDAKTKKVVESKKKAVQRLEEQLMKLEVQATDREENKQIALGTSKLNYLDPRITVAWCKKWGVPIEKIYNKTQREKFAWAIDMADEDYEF
The data set is described as follows: Plasmid DNA relaxation assay, HTop1. The format is biochemical. To be noted: averages of three experiments, read-out: HTop1 inhibition (EC50). The method, then: To investigate the inhibitory effect of our library compounds on the DNA relaxation activity of the recombinant Human and Leishmania topoisomerase 1 (Table 2), assays were performed involving supercoiled plasmid DNA, the enzymes (HTop1 and LdTop1) and our molecules. The enzymes were purified by the standard literature procedure.
The type I DNA topoisomerase are assayed by decreased mobility of the relaxed isomers of supercoiled pBS (SK^+) [pBlue-script (SK^+)] DNA in agarose gel. The relaxation assay was carried out as described previously with LdTop1B and HTop I, diluted in the relaxation buffer (25 mM Tris–HCl, pH 7.5, 5% glycerol, 0.5 mM DTT, 10 mM MgCl2, 50 mM KCl, […] and […] BSA) and supercoiled plasmid pBS (SK^+) DNA (85–95% were negatively supercoiled, with remainder being nicked circles)[9][28][29]. The reconstituted enzyme LdTop1B was assayed at 50 mM KCl concentration as described before. For all kinetic studies, the reaction mixtures containing the buffer and DNA were heated to 37 °C before addition of the enzymes. The reactions were rapidly quenched using stop solution and kept on ice. The gels were stained with ethidium bromide (EtBr) ([…]) and the amount of supercoiled monomer DNA band fluorescence were quantified by integration using Gel Doc 2000 under UV illumination (Bio-Rad Quantity One Software), as described previously.
The wild-type HTop1 (91 kDa) was purified from Sf-9 insect cells infected with the recombinant baculovirus (a kind gift from Prof. J. J. Champoux). Approximately, 1 * 10^9 Sf-9 cells were infected with the recombinant virus, and cells were harvested after 48-h of infection. The cells were lysed and enzyme was purified as described. Briefly, at 48 h post-infection, approximately 3 * 10^9 Sf-9 cells were harvested by centrifugation for 5 min at 400 * g. The cells were resuspended in 1 liter of ice-cold phosphate-buffered saline and centrifuged for 5 min at 400 * g. The nuclei were washed twice in 80 ml of lysis buffer minus Triton X-100 and resuspended in 40 ml of resuspension buffer (50 mM KCl, 10 mM Tris-Cl, pH 7.5, 2 mM MgCl2, 25 mM DTT, 0.4 mg/ml phenylmethylsulfonyl fluoride, 0.12 mg/ml aprotinin). The nuclear extract was stirred for 5 min at ~200 rpm. With continued stirring, 50 ml of polyethylene glycol (PEG) buffer (18% PEG 8000, 1 M NaCl, 10% glycerol) was added dropwise in order to precipitate the DNA. The PEG precipitate was pelleted by centrifugation and the resulting PEG supernatant was dialyzed against 4 liters of potassium phosphate buffer. The dialyzed PEG supernatant passed over a 10-ml bed volume of phosphocellulose (Whatman P11) equilibrated with PPB. The HTop1 flowed through the PS column and then passed over a Mono Q column followed by loaded onto a Mono S column. The Mono S column was eluted with a 25-ml 50–200 mM KPO4, pH 7.4, gradient. […] The peak Mono S fractions were pooled, concentrated with an Amicon ultrafiltration cell, dialyzed into storage buffer (50% glycerol, 10 mM Tris-hydrochloride, pH 7.5, 1 mM DTT, 1 mM EDTA), and stored at −20 °C.

With `Cc1cc2c(c(=O)[nH]1)C(=O)O/C2=C\c1ccc(O)c(O)c1` [Compound 4], the “Selectivity Index (SI)” value with COS7 cells (CC50 against COS7/IC50 against promastigote) was ~100. Besides, the “Cytotoxicity against COS7” value with COS7 cells (COS7) is listed as “no cytotoxicity”. Also, the CC50 (as a rule, the concentration that lowers cell viability or growth by half) in data set [1] turned out to be 390.6 ± 3.15 µM. For the same molecule, on Human Top1 (HTop1), the EC50 (commonly the concentration at which the effect is half-maximal) is > 100 µM.
